Data reported in the supplement of paper PMC10307832.

Assays:
Assay in all cases: relative viability (nuclei count vs DMSO), 5 days (fraction); higher = more cells survive
GW-2580 + Foretinib = compound: COC1=CC=C(C=C1)COC2=C(C=C(C=C2)CC3=CN=C(N=C3N)N)OC [GW-2580] + COc1cc2c(Oc3ccc(NC(=O)C4(C(=O)Nc5ccc(F)cc5)CC4)cc3F)ccnc2cc1OCCCN1CCOCC1 [Foretinib] (partner 0.25 µM)
Summary of the method: (§1)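 One day after seeding in 1536-well plates, lung cancer cell lines were dosed by pin tool. Dosing was either single-drug or a fixed anchor-drug dose plus five library-drug doses (not always all listed) in √10 steps. After 5 days, nuclei were stained in one fix-and-stain step and counted on 4× images, and relative viability is the nuclei count of treated wells over that of vehicle wells, given as the median of duplicate plates.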

GW-2580 + Vorinostat = compound: COC1=CC=C(C=C1)COC2=C(C=C(C=C2)CC3=CN=C(N=C3N)N)OC [GW-2580] + O=C(CCCCCCC(=O)Nc1ccccc1)NO [Vorinostat] (partner 1 µM)
Summary of the method: as §1

GW-2580 + Decitabine = compound: COC1=CC=C(C=C1)COC2=C(C=C(C=C2)CC3=CN=C(N=C3N)N)OC [GW-2580] + Nc1ncn([C@H]2C[C@H](O)[C@@H](CO)O2)c(=O)n1 [Decitabine] (partner 2 µM)
Summary of the method: as §1

GW-2580 + AZD7762 = compound: COC1=CC=C(C=C1)COC2=C(C=C(C=C2)CC3=CN=C(N=C3N)N)OC [GW-2580] + NC(=O)Nc1cc(-c2cccc(F)c2)sc1C(=O)N[C@H]1CCCNC1 [AZD7762] (partner 0.2 µM)
Summary of the method: as §1

Cell Line | relative viability (GW-2580 + Foretinib; first compound 0.08 µM) | relative viability (GW-2580 + Foretinib; first compound 0.8 µM) | relative viability (GW-2580 + Foretinib; first compound 2.53 µM) | relative viability (GW-2580 + Foretinib; first compound 8 µM) | relative viability (GW-2580 + Vorinostat; first compound 0.08 µM) | relative viability (GW-2580 + Vorinostat; first compound 0.8 µM) | relative viability (GW-2580 + Vorinostat; first compound 2.53 µM) | relative viability (GW-2580 + Vorinostat; first compound 8 µM) | relative viability (GW-2580 + Decitabine; first compound 0.08 µM) | relative viability (GW-2580 + Decitabine; first compound 0.8 µM) | relative viability (GW-2580 + Decitabine; first compound 2.53 µM) | relative viability (GW-2580 + Decitabine; first compound 8 µM) | relative viability (GW-2580 + AZD7762; first compound 0.08 µM) | relative viability (GW-2580 + AZD7762; first compound 0.8 µM) | relative viability (GW-2580 + AZD7762; first compound 2.53 µM) | relative viability (GW-2580 + AZD7762; first compound 8 µM)
NCI-H520 | 0.804 | 0.627 | 0.783 | 0.762 | 0.935 | 0.651 | 0.768 | 0.682 | 0.501 | 0.489 | 0.524 | 0.545 |  |  |  | 
NCI-H522 |  |  |  |  | 0.976 | 0.862 | 0.861 | 0.986 | 0.738 | 0.62 | 0.668 | 0.682 | 0.903 | 0.806 | 0.873 | 0.872
NCI-H661 | 1.08 | 0.987 | 1.03 | 0.771 | 0.86 | 0.801 | 0.767 | 0.632 | 0.597 | 0.542 | 0.516 | 0.546 |  |  |  | 
NCI-H1299 | 1.17 | 1.09 | 0.981 | 0.971 |  |  |  |  |  |  |  |  |  |  |  | 
NCI-H1563 | 0.886 | 0.961 | 0.886 | 0.905 |  |  |  |  |  |  |  |  |  |  |  | 
NCI-H1648 |  |  |  |  | 0.761 |  | 0.541 | 0.496 | 0.531 |  | 0.464 | 0.552 | 0.713 |  | 0.778 | 0.583
NCI-H1650 | 1.29 | 1.43 | 1.19 | 1.05 | 0.541 | 0.901 | 0.457 | 0.586 | 0.502 | 0.396 | 0.468 | 0.372 |  |  |  | 
NCI-H1703 | 0.404 | 0.378 | 0.346 | 0.342 |  |  |  |  |  |  |  |  | 0.115 | 0.128 | 0.122 | 0.108
NCI-H1792 |  |  |  |  |  |  |  |  | 0.574 | 0.546 | 0.387 | 0.502 | 0.681 | 0.712 | 0.63 | 0.697
NCI-H2009 | 1.31 | 1.25 | 1.21 | 1.17 | 0.774 | 0.834 | 0.702 | 0.679 | 0.415 | 0.427 | 0.378 | 0.482 |  |  |  | 
NCI-H2023 | 0.735 | 1.02 | 0.841 | 0.779 | 0.812 | 0.882 | 0.598 | 0.762 | 0.22 | 0.239 | 0.222 | 0.296 |  |  |  | 
NCI-H2228 | 0.947 | 0.95 | 0.879 | 0.848 | 0.605 | 0.759 | 0.539 | 0.509 |  |  |  |  |  |  |  | 
SK-LU-1 | 0.823 | 0.934 | 0.708 | 0.816 | 0.924 | 0.918 | 0.648 | 0.734 | 0.631 | 0.673 | 0.55 | 0.668 |  |  |  | 
SK-MES-1 | 1.03 | 0.934 | 0.962 | 0.915 | 1.31 | 1.33 | 0.993 | 1.16 | 0.361 | 0.399 | 0.309 | 0.422 |  |  |  | 
SW 1573 | 1.02 | 1.02 | 1.02 | 0.852 | 0.968 | 0.771 | 0.626 | 0.746 | 0.498 | 0.58 | 0.422 | 0.537 |  |  |  | 
UMC-11 | 1.06 | 1.04 | 1.1 | 1.23 | 0.384 | 0.391 | 0.513 | 0.413 | 0.617 | 0.424 |  | 0.586 |  |  |  | 
